{"source": "patent US20130236966A1", "about": "“NK-1 Receptor Mediated Delivery of Agents to Cells” (THE UNIVERSITY OF CHICAGO, priority 2007, published 2013)", "key": {"[1]": {"tested_on": "HeLa cells transfected with a plasmid coding for the NK-1 receptor", "assay": "confocal microscopy of NK-1 receptor-mediated internalization in transfected HeLa cells", "assay_type": "cell-based, human", "method": "(§1) NK-1 receptor transfection: A plasmid coding for the human NK-1 receptor in the mammalian expression vector pCDNA3(+) (provided by Dr. Robert Lefkowitz, Duke University) was transfected into HeLa cells using Lipofectamine 2000 according to manufacturer protocol, with 1 ng of the plasmid for each well containing 10^4 HeLa cells seeded on an 18 mm cover-slip in a 12-well plate.\n(§2) Confocal Microscopy: For each sample, 10^4 U87 cells were seeded on an 18 mm cover-slip in MEM with 10% FBS overnight in a 12-well plate, then starved in MEM with 0.1% BSA for 3 hrs. The reagent (SP-sAB conjugate, SP-Fluorophore or sAB only) was filter-sterilized, diluted to the desired final concentration in MEM 0.1% BSA and added directly to the live cells in each well for 2 hrs. Untreated cells served as a negative control. Following incubation with the reagent, the cells were washed with PBS and fixed in 4% p-formaldehyde. The cells were permeablized in TBS-Tween and blocked with 10% Normal Goat Serum for 1 hr. Actin filaments were stained with FITC-phalloidin (1:250 dilution), or TRITC-phalloidin (1:3000 dilution) for 1 hr at room temperature. Nuclei were stained with DAPI (10 μg/mL) or Hoechst reagent (Invitrogen, 1:2000) for 5 minutes at room temperature. Samples were mounted using ProLong Gold reagent (Invitrogen). Confocal microscopy images were collected using a Leica SP2 with Alexa 488, Alexa 555 or Cy3 and Alexa 574 or Cy5 excited with the 488 nm laser, the 543 nm laser and the 633 laser, respectively. Multicolored images were overlaid using the imageJ software.\nThe ability to specifically deliver functional biomolecular agents to living cells can be a powerful research tool for studying molecular processes. Introduction of the NK-1 receptor is sufficient for the uptake of fluorescently-labeled SP. […] HeLa cells transfected with a plasmid coding for the NK-1 receptor were incubated for 2 hours with 20 nM fluorescently-labeled SP. The cells were then stained with phalloidin for visualization of actin structure."}, "[2]": {"tested_on": "normal human astrocytes (NHA)", "assay": "confocal microscopy of internalization in normal human astrocytes", "assay_type": "cell-based", "conditions": "FIG. 3c", "method": "(§3) Cell lines: U87 human glioblastoma-astrocytoma epithelial-like cells (provided by Prof. Maciej S. Lesniak, University of Chicago Medical Center) were cultured in MEM with penicillin/streptomycin and 10% FBS. Normal human astrocytes (NHA) were purchased from Lonza and cultured in astrocyte growth media (Lonza) supplemented with rhEGF; Insulin, Ascorbic Acid, GA-1000, L-Glutamine and 5% FBS. HeLa cells (provided by Dr. Ronald Rock, University of Chicago) were grown in DMEM pencillin/streptomycin and with 10% FBS.\nas §2, with “Samples were mounted using ProLong Gold reagent (Invitrogen). Confocal microscopy images were collected using a Leica SP2 with Alexa 488, Alexa 555 or Cy3 and Alexa 574 or Cy5 excited with the 488 nm laser, the 543 nm laser and the 633 laser, respectively. Multicolored images were overlaid using the imageJ software.” left out"}, "U87 glioblastoma cells [3]": {"tested_on": "U87 glioblastoma cells", "assay": "confocal microscopy of internalization in U87 glioblastoma cells", "assay_type": "cell-based, human", "conditions": "FIG. 3b", "method": "as §3\nas §2, with “Samples were mounted using ProLong Gold reagent (Invitrogen). Confocal microscopy images were collected using a Leica SP2 with Alexa 488, Alexa 555 or Cy3 and Alexa 574 or Cy5 excited with the 488 nm laser, the 543 nm laser and the 633 laser, respectively. Multicolored images were overlaid using the imageJ software.” left out"}, "[4]": {"tested_on": "HeLa cells transfected with the NK-1 receptor", "assay": "delivery of a polynucleotide encoding GFP", "assay_type": "cell-based, human", "conditions": "200 pM, FIG. 7", "method": "as §1\nTo determine if other types of agents could also be delivered to cells expressing NK-1 receptors in accordance with the invention, HeLa cells transfected with the NK-1 receptor as described above, were incubated with an SP-polynucleotide conjugate. The polynucleotide encoded GFP operably linked to a promoter functional in the cells. The polynucleotide was also fluorescently tagged with Alexa-647 such that delivery of the polynucleotide into the cell could be monitored as well as expression of GFP."}, "U87 glioblastoma cells [5]": {"tested_on": "U87 glioblastoma cells", "assay": "MTS proliferation / cell viability assay", "assay_type": "cell-based, human", "conditions": "10 nM or 20 nM, 48 hrs, FIG. 5a", "method": "MTS proliferation assay: U87 cells were seeded in 96-well plates at density 5000 cells/well in 0.1 mL of growth media. Cells were attached overnight and starved for 3 hours. Cells were stimulated with 20 nM sAB27-SP conjugate for 3, 5, 9, 24 and 48 hours, and SP or sAB27 alone for 48 hours in starving media. 20 μL of the MTS-based CellTiter 96 Aqueous One Solution reagent was added to each well. The plate was incubated in a humidified, 5% CO2 atmosphere until color was developed and the absorbance was recorded at 490 nm.\nDue to the actin-bundling activity of sAB-27, its effect on the viability of U87 glioblastoma cells following SP-mediated delivery was investigated. Live U87 cells were treated with either 10 nM or 20 nM of the SP-sAB-27 conjugate and a cell viability assay was carried out at different time points up to 48 hrs after treatment. The viability of cells incubated with the conjugates was compared with that of cells treated with SP alone or sAB-27 alone, as well as untreated cells."}}, "note": "Ends that are not written are not given here. Alexa555 = Alexa Fluor 555 thiol-reactive fluorophore", "data": [{"substance": "SP-Alexa555: variant of SP with a cysteine at position 3 carrying a thiol-reactive fluorophore; positive control for NK-1 receptor-mediated internalization (RPC(Alexa555)PQQFFGLM; ends and bridges not checked)", "values": [{"measurement": "internalization by transfected cells", "setting": "[1]; 20 nM, 2 hours, confocal microscopy", "value": "rapid internalization"}, {"measurement": "effect on actin structure", "setting": "[1]; 100 nM, FITC-phalloidin, FIG. 2a,b", "value": "actin structure is unaffected"}, {"measurement": "internalization by NHA", "setting": "[2]; 100 nM (figure legend)", "value": "no internalization was observed"}, {"measurement": "internalization by normal astrocytes", "setting": "[2]; 200 nM, 2 hr", "value": "undetectable"}, {"measurement": "internalization by U87 cells", "setting": "U87 glioblastoma cells [3]; 100 nM (figure legend)", "value": "internalization"}, {"measurement": "internalization by U87 cells", "setting": "U87 glioblastoma cells [3]; 200 nM, 2 hr", "value": "readily internalize"}]}, {"substance": "SP-polynucleotide conjugate: SP conjugated to an Alexa-647 tagged polynucleotide encoding GFP operably linked to a promoter (RPKPQQFFGLM; ends and bridges not checked; also: conjugated to Alexa-647 tagged GFP-encoding polynucleotide, site not given here; UniProt P20366 58-68, looked up)", "values": [{"measurement": "internalization of the Alexa-647 tagged polynucleotide", "setting": "[4]; 2 hours", "value": "internalized after 2 hours"}, {"measurement": "localization of the internalized polynucleotide", "setting": "[4]; 2 hours", "value": "at least a portion co-localized with the nucleus of the cell"}, {"measurement": "expression of GFP", "setting": "[4]; 24 hours, confocal microscopy", "value": "expression of GFP after 24 hours"}]}, {"substance": "SP: 11-amino acid peptide that is rapidly internalized upon binding to the NK-1 receptor; used alone as control (RPKPQQFFGLM; ends and bridges not checked; UniProt P20366 58-68, looked up)", "values": [{"measurement": "localization with actin / effect on actin structure", "setting": "[1]; 20 nM, phalloidin staining, FIG. 2", "value": "no specific localization with actin and no apparent effect on the structure of the actin filaments"}, {"measurement": "cell viability", "setting": "U87 glioblastoma cells [5]", "value": "no effect on viability"}]}]}
